Source: PubChem BioAssay (NCI)
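Five compound concentrations were applied to cells in 96-well plates for 48 hours; endpoints were derived by simple linear interpolation of the resulting dose-response curve. At the GI50, growth is halved. At the TGI there is no net growth.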

Legend:
Test in all cases: NCI-60 cell line screen, 48 h
786-0 renal = system: 786-0 renal
A498 renal = system: A498 renal
A549 NSCLC = system: A549 NSCLC
BT-549 breast = system: BT-549 breast
CAKI-1 renal = system: CAKI-1 renal
CCRF-CEM leukemia = system: CCRF-CEM leukemia
COLO 205 colon = system: COLO 205 colon
DU-145 prostate = system: DU-145 prostate
EKVX NSCLC = system: EKVX NSCLC
HCC-2998 colon = system: HCC-2998 colon
HCT-116 colon = system: HCT-116 colon
HCT-15 colon = system: HCT-15 colon
HL-60(TB) leukemia = system: HL-60(TB) leukemia
HOP-62 NSCLC = system: HOP-62 NSCLC
HOP-92 NSCLC = system: HOP-92 NSCLC
HS 578T breast = system: HS 578T breast
HT29 colon = system: HT29 colon
IGROV1 ovarian = system: IGROV1 ovarian
K-562 leukemia = system: K-562 leukemia
M14 melanoma = system: M14 melanoma
MALME-3M melanoma = system: MALME-3M melanoma
MCF7 breast = system: MCF7 breast
MDA-MB-231 breast = system: MDA-MB-231 breast
MDA-MB-435 = system: MDA-MB-435
MOLT-4 leukemia = system: MOLT-4 leukemia
NCI-H226 lung = system: NCI-H226 lung
NCI-H23 lung = system: NCI-H23 lung
NCI-H460 lung = system: NCI-H460 lung
NCI-H522 lung = system: NCI-H522 lung
NCI/ADR-RES ovarian = system: NCI/ADR-RES ovarian
OVCAR-3 ovarian = system: OVCAR-3 ovarian
OVCAR-4 ovarian = system: OVCAR-4 ovarian
OVCAR-5 ovarian = system: OVCAR-5 ovarian
OVCAR-8 ovarian = system: OVCAR-8 ovarian
PC-3 prostate = system: PC-3 prostate
RPMI-8226 leukemia = system: RPMI-8226 leukemia
RXF 393 renal = system: RXF 393 renal
SF-268 CNS = system: SF-268 CNS
SF-539 CNS = system: SF-539 CNS
SK-MEL-2 melanoma = system: SK-MEL-2 melanoma
SK-MEL-28 melanoma = system: SK-MEL-28 melanoma
SK-MEL-5 melanoma = system: SK-MEL-5 melanoma
SK-OV-3 ovarian = system: SK-OV-3 ovarian
SN12C renal = system: SN12C renal
SNB-19 CNS = system: SNB-19 CNS
SNB-75 CNS = system: SNB-75 CNS
SR leukemia = system: SR leukemia
SW-620 colon = system: SW-620 colon
T-47D breast = system: T-47D breast
TK-10 renal = system: TK-10 renal
U251 CNS = system: U251 CNS
UO-31 renal = system: UO-31 renal

COc1cc(C2=C(c3cn(C)c4ccccc34)COC2=O)cc(OC)c1OC
GI50 (786-0 renal): 317 nM
TGI (786-0 renal): > 32800 nM
GI50 (A498 renal): 17.1 nM
TGI (A498 renal): 109 nM
GI50 (A549 NSCLC): 100 nM
TGI (A549 NSCLC): > 25600 nM
GI50 (BT-549 breast): 61.5 nM
TGI (BT-549 breast): 4180 nM
GI50 (CAKI-1 renal): 53.1 nM
TGI (CAKI-1 renal): 3420 nM
GI50 (CCRF-CEM leukemia): 59.2 nM
TGI (CCRF-CEM leukemia): > 100000 nM
GI50 (COLO 205 colon): 64.8 nM
TGI (COLO 205 colon): 1280 nM
GI50 (DU-145 prostate): 211 nM
TGI (DU-145 prostate): > 100000 nM
GI50 (EKVX NSCLC): 121 nM
TGI (EKVX NSCLC): 5420 nM
GI50 (HCC-2998 colon): 429 nM
TGI (HCC-2998 colon): 5200 nM
GI50 (HCT-116 colon): 39.6 nM
GI50 (HCT-15 colon): 41.6 nM
TGI (HCT-15 colon): 2280 nM
GI50 (HL-60(TB) leukemia): 42.5 nM
TGI (HL-60(TB) leukemia): 1460 nM
GI50 (HOP-62 NSCLC): 123 nM
TGI (HOP-62 NSCLC): > 34800 nM
GI50 (HOP-92 NSCLC): 249 nM
TGI (HOP-92 NSCLC): 4910 nM
GI50 (HS 578T breast): 159 nM
TGI (HS 578T breast): 3580 nM
GI50 (HT29 colon): 38.3 nM
GI50 (IGROV1 ovarian): 77.1 nM
TGI (IGROV1 ovarian): 21700 nM
GI50 (K-562 leukemia): 37 nM
TGI (K-562 leukemia): > 100000 nM
GI50 (M14 melanoma): 34.9 nM
TGI (M14 melanoma): 1170 nM
GI50 (MALME-3M melanoma): 474 nM
TGI (MALME-3M melanoma): 14700 nM
GI50 (MCF7 breast): 27.4 nM
TGI (MCF7 breast): > 19800 nM
GI50 (MDA-MB-231 breast): 340 nM
TGI (MDA-MB-231 breast): > 100000 nM
GI50 (MDA-MB-435): 24.4 nM
TGI (MDA-MB-435): 87.5 nM
GI50 (MOLT-4 leukemia): 55 nM
TGI (MOLT-4 leukemia): > 28200 nM
GI50 (NCI-H226 lung): 1100 nM
TGI (NCI-H226 lung): 7300 nM
GI50 (NCI-H23 lung): 233 nM
TGI (NCI-H23 lung): 3040 nM
GI50 (NCI-H460 lung): 53.2 nM
TGI (NCI-H460 lung): 1680 nM
GI50 (NCI-H522 lung): 48.5 nM
TGI (NCI-H522 lung): 716 nM
GI50 (NCI/ADR-RES ovarian): 46.4 nM
TGI (NCI/ADR-RES ovarian): 2070 nM
GI50 (OVCAR-3 ovarian): 36.4 nM
TGI (OVCAR-3 ovarian): 437 nM
GI50 (OVCAR-4 ovarian): 1270 nM
TGI (OVCAR-4 ovarian): > 52600 nM
GI50 (OVCAR-5 ovarian): 479 nM
TGI (OVCAR-5 ovarian): > 100000 nM
GI50 (OVCAR-8 ovarian): 338 nM
TGI (OVCAR-8 ovarian): > 23600 nM
GI50 (PC-3 prostate): 125 nM
TGI (PC-3 prostate): 53800 nM
GI50 (RPMI-8226 leukemia): 109 nM
TGI (RPMI-8226 leukemia): 1950 nM
GI50 (RXF 393 renal): 133 nM
TGI (RXF 393 renal): 555 nM
GI50 (SF-268 CNS): 802 nM
TGI (SF-268 CNS): 7410 nM
GI50 (SF-539 CNS): 106 nM
TGI (SF-539 CNS): 932 nM
GI50 (SK-MEL-2 melanoma): 56.2 nM
TGI (SK-MEL-2 melanoma): 18500 nM
GI50 (SK-MEL-28 melanoma): 754 nM
TGI (SK-MEL-28 melanoma): 29800 nM
GI50 (SK-MEL-5 melanoma): 77.3 nM
TGI (SK-MEL-5 melanoma): 1400 nM
GI50 (SK-OV-3 ovarian): 269 nM
GI50 (SN12C renal): 593 nM
TGI (SN12C renal): > 100000 nM
GI50 (SNB-19 CNS): 160 nM
TGI (SNB-19 CNS): > 100000 nM
GI50 (SNB-75 CNS): 43.8 nM
TGI (SNB-75 CNS): 522 nM
GI50 (SR leukemia): 21.9 nM
TGI (SR leukemia): > 100000 nM
GI50 (SW-620 colon): 44.4 nM
TGI (SW-620 colon): > 100000 nM
GI50 (T-47D breast): 60.4 nM
TGI (T-47D breast): 8650 nM
GI50 (TK-10 renal): 569 nM
TGI (TK-10 renal): 5610 nM
GI50 (U251 CNS): 73.1 nM
TGI (U251 CNS): > 100000 nM
GI50 (UO-31 renal): 226 nM
TGI (UO-31 renal): 6370 nM
